The values below are quoted from earlier work in patent US11478463B2, “Mast cell stabilizers for treatment of chronic inflammatory conditions” (Emergo Therapeutics, Inc., priority 2016, dated 2022).

The conditions of data set [1]: ketotifen 2 mg per dose, twice daily.
The conditions of data set [2]: patients.
For data set [3] the following is noted: in vivo.

With `CN1CCC(=C2c3ccccc3CC(=O)c3sccc32)CC1` [ketotifen], in data set [1], the steady state level was roughly 2 ng/mL and the “time to approach steady state level” value is listed as “at least 2.5 days”. In data set [2], the drowsiness entry was “causes extreme drowsiness in many patients”.
Consider `O=C1Cc2ccccc2C(=C2CCNCC2)c2ccsc21` [norketotifen], for which the “half-life relative to ketotifen” value in data set [3] was “longer half-life than ketotifen”. Also, the drowsiness entry in data set [2] is on record as “does not cause drowsiness”.
